Measurements published in patent US20250064775A1, “SELECTIVE ELIMINATION OF SENESCENT CELLS BY FERROPTOSIS INDUCTION” (Trustees of Tufts College, priority 2022, published 2025).

Key:
[1] = system: PTGES, ALOX5, LTC4S, LTA4H and ALOX5AP mRNA in liver; experiment: Liver oxylipin synthase mRNAs by qPCR in chemotherapy-induced senescence model; type: in vivo, p16-3MR mice; conditions: FIG. 3B
Description: A. IMR-90 cells were proliferative in 10% serum, made quiescent by incubation for 3 days in 0.2% serum, or made senescent by treatment with 10 Gy X-rays (IR) or ethidium bromide to induce mitochondrial-dysfunction induced senescence (MiDAS). Lipids were extracted from proliferating (PRO—10%), quiescent (QUI—0.2%), IR-induced senescent (SEN(IR)—10% or 0.2% serum), or mitochondrial dysfunction-associated senescent (MiDAS-0.2%) cells and analyzed by liquid chromatography combined with mass spectrometry (LC-MS). Putative oxylipins (A) were detected in control and senescent cells. B. p16-3MR mice were given a single dose (10 mg/kg) of doxorubicin (DOXO) or phosphate-buffered saline (PBS) by intraperitoneal (i.p.) injection. After 5 days, mice were given GCV (25 mg/kg) or vehicle by i.p. injection for 5 consecutive days. Livers were harvested on day 10 and analyzed for oxylipin synthase mRNAs by qPCR. Heat maps indicate averages of at least 5 mice (*=p<0.05, 1-way ANOVA). C. C57BL/6 mice were aged for 6 (young) or 24 (old) months. Kidneys were harvested from mice and analyzed for oxylipin synthase RNA levels by qPCR.
Briefly, mice were treated with either control (phosphate buffered saline, (PBS)), doxorubicin (DOXO), or the combination of DOXO and ganciclovir (GCV). GCV is known to eliminate senescent cells in the liver at the concentrations administered, i.e., 25 mg/kg.

[2] = system: senescent cells; experiment: Ferroptosis induction in senescent relative to non-senescent cells (general statement); type: cell-based; conditions: general statement in description
Excerpt: While many of these oxylipins can drive pathology, such as in the case of pulmonary fibrosis, this may also result in a vulnerability that allows them to be targeted for elimination. Among the oxylipin synthesis enzymes elevated during senescence are arachidonate 5-, 12-, 15-, and 15B-lipoxygenases (ALOX5, 12, 15, and 15B), as well as ALOX5 activating protein (ALOX5AP). These lipoxygenases produce oxylipins, such as the leukotrienes, by acting on free arachidonic acid inside of the cell. However, these enzymes may also peroxidize arachidonic acid that is bound (esterified) in the plasma membrane. Lipid peroxides then react with labile iron in the cytosol via Fenton reaction to result in an exponential chain reaction of lipid peroxidation, ultimately resulting in a form of cell death known as “ferroptosis”. […] Other compounds, such as artemisinin and its derivatives interact with labile iron to increase lipid peroxidation. Since senescent cells also show elevated levels of labile iron, in addition to lipoxygenases, these cells are especially sensitive to induction of ferroptosis. […] As used herein, “senolytic” refers to the property of a molecule, compound, or composition to selectively kill senescent cells. Thus, ML-210, RSL3, FIN56, erastin, artemisinin, and related molecules are useful for the treatment of chronic degenerative diseases that are characterized by cellular senescence.

[3] = system: senescent cells induced with 10 Gy of IR; experiment: Cell survival (CCK8) of IR-induced senescent cells vs non-senescent controls; type: cell-based
Description: (§1) A. RNA levels of GPX4 in cells induced to senesce by ionizing radiation (IR), mitochondrial dysfunction (MiDAS), or lentiviral overexpression of […] [SEN(RAS)]. Non-senescent cells induced by either mock treatment (NS) or empty lentiviral vector (Vector) served as controls. RNA levels measure by quantitative RT-PCR and normalized to actin. B—C. Cells were induced to senesce by 24 h of treatment with 250 nM doxorubicin [SEN(DOXO)] or control [NS (DMSO)], and 10 days later were given the indicated drug doses for 24 h. D. Cells were induced to senesce with 10 Gy of IR and 10 days later given the indicated drug doses for 24 h. E-F. Cells were induced to senesce with 10 Gy of IR and 10 days later given the indicated drug doses for 72 h. Cell survival was then measured by colorimetric assay (CCK8). *=p<0.01
Preliminary data: Senescent cells appear primed to undergo ferroptosis. Not only do they elevate ALOX enzymes (FIG. 1A) and PUFA levels (FIG. 1B), but the lipid hydroxide products of these enzymes are elevated (FIG. 1C), as are byproducts of lipid peroxidation, (e.g. 4-HNE and 4-HDDE (FIG. 1D)). Lipid peroxidation-sensitive probes, e.g., C11-BODIPY, indicate increased lipid peroxidation during senescence. Furthermore, senescent cells accumulate iron in their cytosol. […]

[4] = system: IR-induced senescent [SEN(IR)] cells; experiment: Rescue of RSL3-induced ferroptosis in IR-induced senescent cells (CCK8 survival); type: cell-based
Description: Non-senescent (NS: mock irradiated) or IR-induced senescent [SEN(IR)] cells were treated 10 days after irradiation with […] RSL3 and the indicated ferroptosis antagonist, followed by cell survival measurement by CCK8 assay. A. Cells were treated with ferrostatin-1 (FSN1—1 μM) at the same time as RSL3. B. Cells were given the ALOX5 and ALOX15 inhibitor zileuton (Zil—50 μM) at the same time as RSL3. C. Cells were given iron chelators deferoxamine (DFX—25 μM) or salicylaldehyde isonicotinoyl hydrazine (SIH—100 μM) at the same time as RSL3. D. Cells were given ACSL4 inhibitors rosiglitazone (ROSI—100 μM) or PRGL493 (PRGL—100 μM) for 72 h prior to RSL3. ***=p<0.001
The inventor next sought to further elucidate the potential mechanisms for induction of ferroptosis in senescent cells by the disclosed senolytic drugs. The inventor rescued ferroptosis in senescent cells induced by contacting the cells with RSL3 and ferrostatin-1 (FSN1), which inhibits lipid peroxidation (FIG. 6A), zileuton (5- and 15-lipoxygenase inhibitor), which protects cells from lipoxygenase-induced membrane peroxidation (FIG. 6B), iron chelators deferoxamine or salicylaldehyde isonicotinoyl hydrazine (FIG. 6C), and ACSL4 inhibitors rosiglitazone or PRGL493 (FIG. 6D).

[5] = system: senescent cells [SEN(DOXO)]; experiment: Cell survival (CCK8) of doxorubicin-induced senescent cells vs non-senescent controls; type: cell-based; conditions: SEN(DOXO) (250 nM doxorubicin 24 h) vs NS (DMSO); drug given 10 days later for 24 h; FIG. 5B-C
Description: as §1, with “*=p<0.01 Preliminary data: Senescent cells appear primed to undergo ferroptosis. Not only do they elevate ALOX enzymes (FIG. 1A) and PUFA levels (FIG. 1B), but the lipid hydroxide products of these enzymes are elevated (FIG. 1C), as are byproducts of lipid peroxidation, (e.g. 4-HNE and 4-HDDE (FIG. 1D)). Lipid peroxidation-sensitive probes, e.g., C11-BODIPY, indicate increased lipid peroxidation during senescence. Furthermore, senescent cells accumulate iron in their cytosol. […]” for “*=p<0.01”

[6] = given at the same time as 0.1 mM RSL3, FSN1 1 μM, Zil 50 μM, DFX 25 μM, SIH 100 μM, FIG. 6A-C

COc1cccc2c1C(=O)c1c(O)c3c(c(O)c1C2=O)C[C@@](O)(C(=O)CO)C[C@@H]3O[C@H]1C[C@H](N)[C@H](O)[C@H](C)O1 [DOXO, doxorubicin]
liver mRNA levels of PTGES, ALOX5, LTC4S, LTA4H and ALOX5AP ([1]; single dose 10 mg/kg i.p. vs PBS, livers harvested day 10): DOXO-dependent increase in the mRNA levels

O=S(=O)(NC1CCCCC1)c1ccc2c(c1)C(=NO)c1cc(S(=O)(=O)NC3CCCCC3)ccc1-2 [FIN56]
selective induction of ferroptosis in senescent cells relative to non-senescent cells [2]: selectively induces ferroptosis in senescent cells relative to non-senescent cells

Nc1nc(O)c2ncn(COC(CO)CO)c2n1 [GCV, ganciclovir]
effect on DOXO-dependent increase of liver mRNA levels of PTGES, ALOX5, LTC4S, LTA4H and ALOX5AP ([1]; 25 mg/kg i.p. for 5 consecutive days, 5 days after DOXO): abrogates the DOXO-dependent increase in the mRNA levels

Cc1onc(C(=O)N2CCN(C(c3ccc(Cl)cc3)c3ccc(Cl)cc3)CC2)c1[N+](=O)[O-] [ML-210]
selective induction of ferroptosis in senescent cells relative to non-senescent cells [2]: selectively induces ferroptosis in senescent cells relative to non-senescent cells | selective induction of ferroptosis in senescent cells (cell survival, CCK8) ([3]; 10 Gy IR senescent vs non-senescent (NS) cells, drug given 10 days later for 24 h, FIG. 5D): selectively induced ferroptosis in senescent cells and not control non-senescent (NS) cells

CC(=O)NC1=NC(c2cn(-c3ccccc3)nc2-c2ccc(C)o2)n2c(nc3ccccc32)N1 (stereo not drawn) [PRGL493]
rescue of RSL3-induced ferroptosis in senescent cells (cell survival, CCK8) ([4]; given for 72 h prior to 0.1 mM RSL3, ROSI 100 μM, PRGL 100 μM, FIG. 6D): rescued induction of ferroptosis in senescent cells

COC(=O)c1ccc([C@H]2c3[nH]c4ccccc4c3CC(C(=O)OC)N2C(=O)CCl)cc1 (stereo partly drawn) [RSL3]
selective killing of senescent cells (cell survival, CCK8) [5]: selectively killed senescent cells | selective induction of ferroptosis in senescent cells relative to non-senescent cells [2]: selectively induces ferroptosis in senescent cells relative to non-senescent cells

C[C@@H]1CC[C@H]2[C@@H](C)C(=O)O[C@@H]3O[C@@]4(C)CC[C@@H]1[C@]32OO4 [artemisinin]
cell death in senescent cells vs control cells (cell survival, CCK8) ([3]; 10 Gy IR, drug given 10 days later for 72 h, several concentrations, FIG. 5E-5F): induced significantly more cell death in senescent cells than control cells

CCOC(=O)c1ccc(NC2CCCCC2)c(N)c1 [ferrostatin-1]
rescue of RSL3-induced ferroptosis in senescent cells (cell survival, CCK8) [4, 6]: rescued induction of ferroptosis in senescent cells

CC(c1cc2ccccc2s1)N(O)C(N)=O (stereo not drawn) [zileuton]
rescue of RSL3-induced ferroptosis in senescent cells (cell survival, CCK8) [4, 6]: rescued induction of ferroptosis in senescent cells

salicylaldehyde isonicotinoyl hydrazine
rescue of RSL3-induced ferroptosis in senescent cells (cell survival, CCK8) [4, 6]: rescued induction of ferroptosis in senescent cells
